As a reminder, the pEC50 is −log10 of the EC50, conventionally taken in molar units. A low value points to a high EC50.

Experimental findings from US20240228572A1 (i2o Therapeutics, Inc., priority 2020, published 2024) are described below.

Experiment [1] addresses T1, human GLP-1 receptor (GLP-1R) (Homo sapiens, UniProt P43220).
T1 construct: expressed in transfected cells
Description: cAMP accumulation assay, CHO-K1 cells stably expressing human GLP-1R. The experiment is classed as cell-based. The following applies: cAMP accumulation, mean pEC50, Table 10. (In general: cAMP levels reflect the balance of adenylyl cyclase and phosphodiesterase activity.)

Experiment [2] addresses T2, human Glucagon receptor (GCGR) (Homo sapiens, UniProt P47871).
T2 construct: A cDNA fragment encoding the full-length open reading frame of the human GCGR; expressed in transfected cells; host or cells: CHO-K1, pcDNA3.1+, Lipofectamine 2000
Description: cAMP accumulation assay, CHO-K1 cells expressing human GCGR. It is filed as cell-based. The following applies: mean pEC50, Table 10. The source says:
In the presence of the non-specific cAMP/cGMP phosphodiesterase inhibitor, 3-isobutyl-1-methylxanthine (IBMX), accumulating cAMP can be measured in vitro using common detection methods. Thus, it is possible to estimate an in vitro potency (pEC50) for peptides activating each of these receptors using fit dose-response curves for cAMP accumulation.
A cDNA fragment encoding the full-length open reading frame of the cynomolgus monkey GLP-1R (Genebank accession #XM_028847603 was cloned into pcDNA3.1+ for expression in CHO-K1 cells. A cDNA fragment encoding the full-length open reading frame of the human GCGR (Genebank accession #NM_000160 was cloned into pcDNA3.1+ for expression in CHO-K1 cells. A cDNA fragment encoding the full-length open reading frame of the rat GCGR (Genebank accession #NM_12091 was cloned into pcDNA3.1+ for expression in CHO-K1 cells. A cDNA fragment encoding the full-length open reading frame of the cynomolgus monkey GCGR (Genebank accession #XM_005585255 was cloned into pcDNA3.1+ for expression in CHO-K1 cells.
On day 1, CHO-K1 cells were plated at 1.5 million cells per T75 flask in 90% F12-K media supplemented with 10% FBS. On day 3 cells were transfected with 40 mcg of each expression plasmid using Lipofectamine 2000 transfection reagent. On day 5, cells were dispensed at 1000 cells per well in white 384-well OptiPlates in 5 mcL of assay buffer consisting of 1×HBSS, 5 mM HEPES, 0.5 mM IBMX, and 0.1% casein.
Peptides were serially diluted 4-fold in assay buffer to final concentrations ranging from 1×10^−9 M to 9.5×10^−16 M. Two assay controls consisting of 50 mcM forskolin (cAMP system maximum) or assay buffer only (cAMP system minimum) were also prepared. Five microliters of each peptide-concentration, or assay control, was added to triplicate wells and incubated for thirty minutes at room temperature. During this incubation step a 4× europium labelled cAMP tracer solution and a 4× Ulight®-anti-cAMP solution (consisting of an anti-cAMP monoclonal antibody labelled with Ulight™ dye) was prepared according to the manufacturer's protocol (PerkinElmer LANCE Ultra cAMP kit). Following this incubation, 5 mcL europium labelled cAMP and 5 mcL Ulight anti-cAMP antibody was added to each well. The plate was covered to prevent evaporation and incubated for 60 minutes at room temperature in the dark. Plates were read on an Envision fluorescent plate reader (PerkinElmer).
Test values were first normalized to the system maximum and system minimum averaged values in Excel using the formula: (test value−system min average)/(system max average -system min average)*100. Normalized test values represent a baseline corrected percentage of the system maximum cAMP response induced by forskolin. Data from up to 3 replicate tests were analyzed for each peptide. Potency values were estimated using GraphPad Prism software (v7.04) by fitting data to a 4-parameter logistic curve model: Y=Bottom+(Top−Bottom)/(1+10^((LogEC50−X))). The Hill slope was constrained to 1.0. EC50 values were converted to pEC50 values using the formula: pEC50=−Log (EC50).

pEC50: −log10 of the molar value. *1 amine or outer side, *2 acyl side, *3 side chain or, on linkers, in order; H or OH if unused. Where a SMILES comes first, the peptide text is derived from it. Side-chain parts run from the residue outwards. [ ]: non-standard residue; d: D form. The star is where a group is joined. C20 diacid = O=C(O)CCCCCCCCCCCCCCCCCCC(=O)*; γGlu = O=C(O)[C@H](CCC(=O)[*:2])N[*:1]; Aib = CC(C)(N)C(=O)O Where only a bound is given, the exact number is not on record here.

T2 sequence (P47871 26-477): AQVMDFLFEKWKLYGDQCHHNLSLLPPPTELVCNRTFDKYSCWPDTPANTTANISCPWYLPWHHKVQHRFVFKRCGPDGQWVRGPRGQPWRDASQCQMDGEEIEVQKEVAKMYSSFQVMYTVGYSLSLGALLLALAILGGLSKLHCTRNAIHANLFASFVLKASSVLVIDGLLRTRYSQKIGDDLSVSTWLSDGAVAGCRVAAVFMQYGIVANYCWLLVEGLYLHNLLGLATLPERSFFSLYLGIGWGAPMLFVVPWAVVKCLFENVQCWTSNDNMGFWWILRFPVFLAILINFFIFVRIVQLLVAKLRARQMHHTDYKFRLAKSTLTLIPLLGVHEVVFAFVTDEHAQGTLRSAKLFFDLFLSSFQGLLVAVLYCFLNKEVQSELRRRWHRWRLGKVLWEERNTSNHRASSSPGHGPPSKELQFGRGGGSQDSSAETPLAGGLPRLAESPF
T1 sequence (P43220 24-463): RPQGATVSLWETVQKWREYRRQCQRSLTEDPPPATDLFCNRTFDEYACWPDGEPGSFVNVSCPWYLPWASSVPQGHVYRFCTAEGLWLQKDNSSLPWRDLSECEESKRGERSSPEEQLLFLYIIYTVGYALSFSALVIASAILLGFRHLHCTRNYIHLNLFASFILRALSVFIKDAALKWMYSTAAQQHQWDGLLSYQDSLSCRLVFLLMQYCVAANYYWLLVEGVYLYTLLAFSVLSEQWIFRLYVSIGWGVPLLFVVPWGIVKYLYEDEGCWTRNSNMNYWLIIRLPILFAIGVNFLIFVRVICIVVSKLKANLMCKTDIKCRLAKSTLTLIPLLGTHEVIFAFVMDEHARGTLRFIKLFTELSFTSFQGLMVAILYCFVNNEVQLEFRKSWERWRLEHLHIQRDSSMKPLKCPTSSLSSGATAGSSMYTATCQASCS

For `CC(C)C[C@H](NC(=O)[C@H](Cc1ccc(O)cc1)NC(=O)[C@H](CCCCN)NC(=O)[C@H](CO)NC(=O)[C@H](Cc1ccc(O)cc1)NC(=O)[C@H](CC(=O)O)NC(=O)[C@H](CO)NC(=O)[C@@H](NC(=O)[C@H](Cc1ccccc1)NC(=O)[C@@H](NC(=O)CNC(=O)[C@H](Cc1c[nH]cn1)NC(=O)[C@H](CO)NC(=O)[C@@H](N)Cc1ccc(O)cc1)[C@@H](C)O)[C@@H](C)O)C(=O)N[C@@H](CC(=O)O)C(=O)N[C@@H](CCCCNC(=O)CC[C@H](NC(=O)CC[C@H](NC(=O)CCCCCCCCCCCCCCCCCCC(=O)O)C(=O)O)C(=O)O)C(=O)N[C@@H](CCCCN)C(=O)N[C@@H](Cc1ccc(O)cc1)C(=O)N[C@@H](C)C(=O)N[C@@H](CCC(N)=O)C(=O)N[C@@H](CCC(=O)O)C(=O)N[C@@H](Cc1ccccc1)C(=O)N[C@H](C(=O)NC(C)(C)C(=O)N[C@@H](Cc1c[nH]c2ccccc12)C(=O)N[C@@H](CC(C)C)C(=O)N[C@@H](CCC(=O)O)C(=O)N[C@@H](CC(=O)O)C(=O)N[C@@H](CCC(=O)O)C(=O)N1CCC[C@H]1C(=O)N[C@@H](CO)C(=O)N[C@@H](CO)C(=O)NCC(=O)N[C@@H](C)C(=O)N1CCC[C@H]1C(=O)N1CCC[C@H]1C(=O)N1CCC[C@H]1C(=O)N[C@@H](CO)C(=O)O)C(C)C` [Compound A13] (H-YSHGTFTSDYSKYLDK([γGlu-γGlu-C20 diacid])KYAQEFV[Aib]WLEDEPSSGAPPPS-OH), the negative-log EC50 (pEC50) is less than 9.00 in experiment [1] and 12.00 in experiment [2].

As for `CC(C)C[C@H](NC(=O)[C@H](Cc1ccc(O)cc1)NC(=O)[C@H](CCCCN)NC(=O)[C@H](CO)NC(=O)[C@H](Cc1ccc(O)cc1)NC(=O)[C@H](CC(=O)O)NC(=O)[C@H](CO)NC(=O)[C@@H](NC(=O)[C@H](Cc1ccccc1)NC(=O)[C@@H](NC(=O)CNC(=O)[C@H](Cc1c[nH]cn1)NC(=O)[C@H](CO)NC(=O)[C@@H](N)Cc1ccc(O)cc1)[C@@H](C)O)[C@@H](C)O)C(=O)N[C@@H](CC(=O)O)C(=O)NC(C)(C)C(=O)N[C@@H](CCCCN)C(=O)N[C@@H](Cc1ccc(O)cc1)C(=O)N[C@@H](C)C(=O)N[C@@H](CCC(N)=O)C(=O)N[C@@H](CCCCNC(=O)CC[C@H](NC(=O)CC[C@H](NC(=O)CCCCCCCCCCCCCCCCCCC(=O)O)C(=O)O)C(=O)O)C(=O)N[C@@H](Cc1ccccc1)C(=O)N[C@H](C(=O)NC(C)(C)C(=O)N[C@@H](Cc1c[nH]c2ccccc12)C(=O)N[C@@H](CC(C)C)C(=O)N[C@@H](CCC(=O)O)C(=O)N[C@@H](CC(=O)O)C(=O)N[C@@H](CCC(=O)O)C(=O)N1CCC[C@H]1C(=O)N[C@@H](CO)C(=O)N[C@@H](CO)C(=O)NCC(=O)N[C@@H](C)C(=O)N1CCC[C@H]1C(=O)N1CCC[C@H]1C(=O)N1CCC[C@H]1C(=O)N[C@@H](CO)C(=O)O)C(C)C` [Compound A14] (H-YSHGTFTSDYSKYLD[Aib]KYAQK([γGlu-γGlu-C20 diacid])FV[Aib]WLEDEPSSGAPPPS-OH; N-terminus assumed), the results for the pEC50 in experiment [1] and in experiment [2] were less than 9.00 and 11.20, respectively.
